From US11878049B1, “Mitapivat therapy and modulators of cytochrome P450” (Agios Pharmaceuticals, Inc., priority 2019, dated 2024)

Legend:
Type in all cases: in vitro ADME
[1] = target: T1, breast cancer resistance protein (BCRP) (Homo sapiens, UniProt Q9UNQ0); experiment: Transporter inhibition
T1 sequence (Q9UNQ0 1-655): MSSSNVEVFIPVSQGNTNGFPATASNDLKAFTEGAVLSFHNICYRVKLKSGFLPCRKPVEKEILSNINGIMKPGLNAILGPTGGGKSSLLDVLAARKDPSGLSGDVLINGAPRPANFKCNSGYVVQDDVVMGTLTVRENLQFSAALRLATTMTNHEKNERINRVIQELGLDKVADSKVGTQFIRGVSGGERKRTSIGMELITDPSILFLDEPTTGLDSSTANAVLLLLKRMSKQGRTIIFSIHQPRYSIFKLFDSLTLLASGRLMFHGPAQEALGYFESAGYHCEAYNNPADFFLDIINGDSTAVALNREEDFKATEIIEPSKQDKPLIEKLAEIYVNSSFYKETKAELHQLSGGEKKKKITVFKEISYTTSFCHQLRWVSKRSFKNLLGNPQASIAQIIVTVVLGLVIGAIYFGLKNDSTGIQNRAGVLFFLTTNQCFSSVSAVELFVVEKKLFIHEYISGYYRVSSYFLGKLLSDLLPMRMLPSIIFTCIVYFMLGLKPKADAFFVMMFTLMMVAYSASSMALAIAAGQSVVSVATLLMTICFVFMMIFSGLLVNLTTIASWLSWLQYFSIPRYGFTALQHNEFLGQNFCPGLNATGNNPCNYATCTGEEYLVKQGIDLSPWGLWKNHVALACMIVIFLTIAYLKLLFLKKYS

CYP2C19 = CYP2C19 (Homo sapiens, UniProt P33261); experiment: CYP enzyme inhibition
CYP2C9 [2] = target: T2, CYP2C9 (Homo sapiens, UniProt P11712); experiment: CYP enzyme inhibition
CYP1A2 = target: T3, CYP1A2 (Homo sapiens, UniProt P05177); experiment: CYP-enzyme phenotyping using human liver microsomes and recombinant CYP enzymes
T3 construct: CYP-enzyme phenotyping using human liver microsomes and recombinant CYP enzymes; from tissue; host or cells: human liver microsomes

CYP3A4/5 = experiment: as above
CYP2C9 [3] = target: T2, CYP2C9; experiment: as above; design: CYP-enzyme phenotyping using human liver microsomes and recombinant CYP enzymes; from tissue; host or cells: human liver microsomes
CYP2C8 = CYP2C8 (Homo sapiens, UniProt P10632); experiment: as above; design: CYP-enzyme phenotyping using human liver microsomes and recombinant CYP enzymes; from tissue; host or cells: human liver microsomes
CYP2C8, sequence (P10632 whole entry): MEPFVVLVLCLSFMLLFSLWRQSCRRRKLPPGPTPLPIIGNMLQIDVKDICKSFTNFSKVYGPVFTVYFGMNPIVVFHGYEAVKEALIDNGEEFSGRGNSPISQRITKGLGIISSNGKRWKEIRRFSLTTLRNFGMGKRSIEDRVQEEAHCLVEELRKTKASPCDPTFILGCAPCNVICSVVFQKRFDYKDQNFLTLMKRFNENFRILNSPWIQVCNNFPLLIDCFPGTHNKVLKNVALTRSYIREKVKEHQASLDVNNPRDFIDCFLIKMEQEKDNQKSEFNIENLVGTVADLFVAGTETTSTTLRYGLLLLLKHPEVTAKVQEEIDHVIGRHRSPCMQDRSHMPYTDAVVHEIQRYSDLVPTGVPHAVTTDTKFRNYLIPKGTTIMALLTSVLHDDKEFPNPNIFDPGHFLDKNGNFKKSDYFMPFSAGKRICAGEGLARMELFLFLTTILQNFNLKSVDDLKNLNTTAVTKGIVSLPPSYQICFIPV

T2 sequence (P11712 whole entry): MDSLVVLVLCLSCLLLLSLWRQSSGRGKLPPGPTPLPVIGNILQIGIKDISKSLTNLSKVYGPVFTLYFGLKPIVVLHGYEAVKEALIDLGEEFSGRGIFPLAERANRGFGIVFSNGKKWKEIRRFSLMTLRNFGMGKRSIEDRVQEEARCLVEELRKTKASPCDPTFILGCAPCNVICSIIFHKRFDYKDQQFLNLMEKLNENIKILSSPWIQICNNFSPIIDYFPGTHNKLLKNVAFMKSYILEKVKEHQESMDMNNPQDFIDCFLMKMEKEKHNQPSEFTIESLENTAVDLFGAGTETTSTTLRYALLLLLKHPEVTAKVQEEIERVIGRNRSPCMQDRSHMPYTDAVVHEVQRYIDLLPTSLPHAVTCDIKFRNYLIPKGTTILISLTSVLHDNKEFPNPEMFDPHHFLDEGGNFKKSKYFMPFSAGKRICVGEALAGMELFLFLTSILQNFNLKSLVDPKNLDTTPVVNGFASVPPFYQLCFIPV
CYP2C19, sequence (P33261 whole entry): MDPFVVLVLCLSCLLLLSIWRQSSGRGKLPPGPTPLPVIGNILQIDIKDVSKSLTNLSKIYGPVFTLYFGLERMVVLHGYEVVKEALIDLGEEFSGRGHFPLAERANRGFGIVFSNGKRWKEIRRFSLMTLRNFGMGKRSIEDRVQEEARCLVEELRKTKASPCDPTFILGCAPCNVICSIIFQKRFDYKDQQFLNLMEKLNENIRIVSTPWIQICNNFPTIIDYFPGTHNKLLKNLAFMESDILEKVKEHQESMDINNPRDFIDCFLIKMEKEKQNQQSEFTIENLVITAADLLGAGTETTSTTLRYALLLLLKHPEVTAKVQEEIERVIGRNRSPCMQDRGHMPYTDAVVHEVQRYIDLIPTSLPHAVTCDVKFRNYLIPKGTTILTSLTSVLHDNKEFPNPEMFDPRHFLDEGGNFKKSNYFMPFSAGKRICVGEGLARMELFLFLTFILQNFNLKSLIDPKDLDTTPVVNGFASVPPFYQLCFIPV
T3 sequence (P05177 whole entry): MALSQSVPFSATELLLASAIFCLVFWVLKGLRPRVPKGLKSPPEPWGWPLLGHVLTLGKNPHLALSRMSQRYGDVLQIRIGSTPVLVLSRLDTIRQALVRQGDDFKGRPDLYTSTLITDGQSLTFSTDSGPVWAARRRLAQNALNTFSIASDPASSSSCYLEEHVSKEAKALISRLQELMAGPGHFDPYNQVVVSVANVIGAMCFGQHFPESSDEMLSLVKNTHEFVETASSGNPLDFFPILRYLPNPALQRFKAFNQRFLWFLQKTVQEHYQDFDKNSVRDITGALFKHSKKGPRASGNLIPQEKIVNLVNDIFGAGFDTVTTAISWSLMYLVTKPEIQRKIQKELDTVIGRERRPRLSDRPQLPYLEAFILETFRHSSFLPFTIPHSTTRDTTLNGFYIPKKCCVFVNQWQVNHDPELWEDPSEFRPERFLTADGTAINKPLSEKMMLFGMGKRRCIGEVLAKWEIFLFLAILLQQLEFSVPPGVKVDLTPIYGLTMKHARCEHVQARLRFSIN

SMILES | Inhibitor for BCRP [1] | Inhibition of CYP2C19 (CYP2C19) | Inhibition of CYP2C9 (CYP2C9 [2]) | Contribution of CYP1A2 to metabolism (CYP1A2) | Share of metabolism by CYP3A4/5 (primarily metabolized by) (CYP3A4/5) [%] | Contribution of CYP2C9 to metabolism (CYP2C9 [3]) | Contribution of CYP2C8 to metabolism (CYP2C8)
O=C(c1ccc(NS(=O)(=O)c2cccc3cccnc23)cc1)N1CCNCC1 [Metabolite] | not an inhibitor | mild inhibitor | mild inhibitor | – | – | – | –
O=C(c1ccc(NS(=O)(=O)c2cccc3cccnc23)cc1)N1CCN(CC2CC2)CC1 [Mitapivat, N-(4-(4-(cyclopropylmethyl)piperazine-1-carbonyl)phenyl)quinoline-8-sulfonamide] | – | – | – | minor contributions | > 90 | minor contributions | minor contributions
